Structures can show the parent of a compound that is named as a salt.
Experiments:
NCI-H446 xenograft = details: 40 mg/kg, I.P. QD for 28 days
Hep3B xenograft = details: 30 mg/kg, oral, QD 28 days
Glypican-3 (GPC3) = Glypican-3 (GPC3) (UniProt P51654;P51654 P51654:25-358,P51654:359-554); assay: assay and GPC3 source not stated; fusion does not affect GPC3 binding; details: tags: recombinant GPC3 used for SELEX; source inferred for kinetic assay

CCc1c2c(nc3ccc(OC(=O)N4CCC(N5CCCCC5)CC4)cc13)-c1cc3c(c(=O)n1C2)COC(=O)[C@]3(O)CC [Irinotecan, irinotecan]
% of body weight loss (Day 29) (NCI-H446 xenograft): −5.29%

CNC(=O)c1cc(Oc2ccc(NC(=O)Nc3ccc(Cl)c(C(F)(F)F)c3)cc2)ccn1 [Sorafenib Tosylate]
% of body weight loss (Day 28) (Hep3B xenograft): 9.33%

B1: GRX51 (CpG7909-GRX49 fusion) (mixed)
mixed: TCGTCGTTTTGTCGTTTTGTCGTTCGUCAUCGGGUUGCUACCCAAGGCCAGGAGGCGAUGACG
modifications: PS DNA CpG7909 portion, 2'-OMe aptamer portion
IC50 (Glypican-3 (GPC3)): 32.7 nM
